In one data set the test system is A. thaliana IspD. More on the design: method as in PMID 24446431, PMID 21766403, PMID 22975264. The conditions noted are these: known IspD inhibitors, Fig. 2; cited from earlier work.
For the next data set, the target named is PfIspD (Plasmodium falciparum, UniProt Q8I273). Briefly: biochemical. The conditions noted are these: mean and SEM; n ≥ 3. Here is the method:
(§1) Phosphate released by IspD was quantified using the EnzChek Phosphate Assay Kit (Invitrogen, Life Technologies), as previously described. 2-Amino-6-mercapto-7-methylpurine riboside (MESG) and purine nucleoside phosphorylase (PNP) were diluted and stored according to the manufacturer’s instructions. Final concentrations of reagents were as follows: 100 mM NaCl, 25 mM Tris pH 7.5, 7.5 mM MgCl2, 1 U/ml PNP, 0.1 U/mL yeast inorganic pyrophosphatase (New England Biolabs). […] Reactions were performed in 50 μL final volumes in 96-well clear flat bottom plates. In general, enzymes, buffers, and inhibitors were pre-warmed approximately 15 minutes at 37 °C, and reactions were then initiated by addition of the MEP substrate. […] Assays using E. coli IspD used 7.5 nM EcIspD-wt or 75 nM EcIspD-A14C. Absorbance at 360 nm was measured over time on a BMG POLARStar plate reader, preheated to 37 °C. Nonlinear regression analysis was performed using GraphPad Prism software. […] Slopes of changing absorbance values were converted to (μM MEP) (μM enzyme)^−1 s^−1 using a phosphate standard curve.

For the next data set, the target named is PvIspD (Plasmodium vivax, UniProt A5K9U5). The data set can be described thus: IspD enzyme assay (EnzChek phosphate release), recombinant PvIspD. Type of data set: biochemical, P. vivax. As for the experimental part: as §1
Sequence of PvIspD (A5K9U5 entry or part of it): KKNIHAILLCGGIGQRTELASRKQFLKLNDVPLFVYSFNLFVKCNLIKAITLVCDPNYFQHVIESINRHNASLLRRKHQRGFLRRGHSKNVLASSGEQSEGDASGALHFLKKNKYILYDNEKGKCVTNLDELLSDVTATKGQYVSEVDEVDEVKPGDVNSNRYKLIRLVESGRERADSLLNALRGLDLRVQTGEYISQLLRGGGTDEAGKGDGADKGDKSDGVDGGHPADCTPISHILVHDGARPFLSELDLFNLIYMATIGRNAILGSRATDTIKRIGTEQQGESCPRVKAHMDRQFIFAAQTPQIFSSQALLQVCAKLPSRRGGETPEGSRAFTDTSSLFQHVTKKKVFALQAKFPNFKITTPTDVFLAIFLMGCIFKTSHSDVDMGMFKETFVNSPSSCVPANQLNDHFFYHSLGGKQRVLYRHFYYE
The subject of data set [1] is P. falciparum strain 3D7. The data set can be described thus: Parasite sensitivity assay (PicoGreen, 72 hours), strain 3D7. Type of data set: cell-based. The conditions noted are these: Plasmodium falciparum, mean and SEM, n ≥ 3, read-out: (3D7) EC50, P. falciparum growth in culture. Here is the method: (§2) Unless otherwise specified, P. falciparum parasites were cultured as previously described, in a 2% suspension of human erythrocytes in RPMI-1640 medium (Sigma Aldrich) supplemented with 27 mM sodium bicarbonate, 11 mM glucose, 5 mM HEPES, 1 mM sodium pyruvate, 0.37 mM hypoxanthine, 0.01 mM thymidine, 10 μg ml^−1 gentamicin and 0.5% Albumax (Life Technologies). Cultures were maintained in 5% O2/5% CO2/90% N2 at 37 °C. Parasite growth was monitored by microscopy of Giemsa-stained parasites. 3D7 strain parasites were obtained from the Malaria Research and Reference Reagent Resource Center, ATCC, Manassas, Virginia. D6 and 7G8 strains were obtained through BEI Resources Repository, NIAID, NIH: Plasmodium falciparum, Strain D6, MRA-285, contributed by D.E. Kyle; Plasmodium falciparum, Strain 7G8, MRA-152, contributed by David Walliker. The IPC 5202 strain was provided by the Malaria Research and Reference Reagent Resource Center (MR4) for distribution by BEI Resources NIAID, NIH: Plasmodium falciparum, Strain IPC 5202, also known as CAM3.IR539T; MRA-1240, contributed by Didier Ménard.
(§3) Asynchronous cultures of P. falciparum strain 3D7 were diluted to 1% parasitemia and cultured at indicated concentrations of inhibitor compounds in 100 μL culture volumes. During rescue experiments, parasite growth medium was supplemented with 200 μM isopentenyl pyrophosphate (IPP; Echelon Biosciences). After 72 hours, parasite growth was quantified using PicoGreen dye (Invitrogen) to measure DNA content as previously described. PicoGreen fluorescence was measured (485 nm excitation/528 nm emission) in a POLARStar Omega microplate reader (BMG Labtech).

Data set [2] relates to P. falciparum strain 3D7. Briefly: Parasite growth inhibition with and without IPP supplementation (rescue). Type of data set: cell-based. The conditions noted are these: for IPP rescue of parasite growth: 200 μM IPP supplementation. As for the experimental part:
as §3

The subject of another data set is MEP pathway. Briefly: MEP metabolite profiling (LC-MS/MS of DOXP and MEcPP) in treated parasites. The conditions noted are these: 10 hours; for MEcPP levels compared to untreated parasites: 3 μM 8 or 5 μM FSM.
The next data set concerns P. falciparum IspD. More on the design: method as in PMID 26783558, PMID 25367906, PMID 24247137, PMID 25754494. The conditions noted are these: known IspD inhibitors, Fig. 2; cited from earlier work.
A further data set relates to P. falciparum strain D6. The data set can be described thus: Parasite sensitivity assay, strain D6 (mefloquine-resistant). It counts as cell-based. The conditions noted are these: Plasmodium falciparum, mean and SEM, read-out: Whole Cell Growth Inhibition EC50. As for the experimental part:
as §2, with “The IPC 5202 strain was provided by the Malaria Research and Reference Reagent Resource Center (MR4) for distribution by BEI Resources NIAID, NIH: Plasmodium falciparum, Strain IPC 5202, also known as CAM3.IR539T; MRA-1240, contributed by Didier Ménard.” left out
(§4) Asynchronous cultures of P. falciparum strain 3D7 were diluted to 1% parasitemia and cultured at indicated concentrations of inhibitor compounds in 100 μL culture volumes. […] After 72 hours, parasite growth was quantified using PicoGreen dye (Invitrogen) to measure DNA content as previously described. PicoGreen fluorescence was measured (485 nm excitation/528 nm emission) in a POLARStar Omega microplate reader (BMG Labtech).

The subject of data set [3] is P. falciparum strain IPC 5202. Briefly: Parasite sensitivity assay, strain IPC 5202 (artemisinin-resistant). Type of data set: cell-based. The conditions noted are these: Plasmodium falciparum, mean and SEM, read-out: Whole Cell Growth Inhibition EC50. Here is the method: as §2, with “The IPC 5202 strain was provided by the Malaria Research and Reference Reagent Resource Center (MR4) for distribution by BEI Resources NIAID, NIH: Plasmodium falciparum, Strain IPC 5202, also known as CAM3.IR539T; MRA-1240, contributed by Didier Ménard.” left out
as §4

Another data set concerns the target T1, EcIspD-A14C (Escherichia coli, UniProt Q46893, A14C).
T1 construct: Amplicons containing the entire E. coli IspD gene were generated; 6His (N); made in house; host or cells: Artic Express (DE3) RIL E. coli
Briefly: IspD enzyme assay, recombinant EcIspD-A14C mutant. Type of data set: biochemical, E. coli. As for the experimental part: as §1

The subject of a further data set is PfIspD-C202A. The data set can be described thus: IspD enzyme assay, recombinant PfIspD-C202A mutant. Type of data set: biochemical, P. falciparum. The conditions noted are these: prolonged (50 min.) incubation. Here is the method: as §1
Another data set concerns P. falciparum strain 7G8. The data set can be described thus: Parasite sensitivity assay, strain 7G8 (multidrug (chloroquine)-resistant). It counts as cell-based. The conditions noted are these: Plasmodium falciparum, mean and SEM, read-out: Whole Cell Growth Inhibition EC50. Here is the method: as §2, with “The IPC 5202 strain was provided by the Malaria Research and Reference Reagent Resource Center (MR4) for distribution by BEI Resources NIAID, NIH: Plasmodium falciparum, Strain IPC 5202, also known as CAM3.IR539T; MRA-1240, contributed by Didier Ménard.” left out
as §4

The target of another data set is T2, EcIspD-wt (Escherichia coli, UniProt Q46893).
T2 construct: 6His; made in house; host or cells: Artic Express (DE3) RIL E. coli
T2 sequence (Q46893 whole entry): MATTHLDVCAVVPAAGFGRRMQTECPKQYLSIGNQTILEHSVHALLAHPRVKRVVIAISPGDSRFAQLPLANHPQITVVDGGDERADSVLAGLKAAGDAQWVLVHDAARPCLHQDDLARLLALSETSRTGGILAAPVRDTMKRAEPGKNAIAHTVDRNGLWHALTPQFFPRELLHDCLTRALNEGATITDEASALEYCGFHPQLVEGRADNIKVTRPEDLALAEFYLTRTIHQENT
The data set can be described thus: IspD enzyme assay, recombinant EcIspD-wt. It counts as biochemical, E. coli. As for the experimental part: as §1

The test system of the next data set is P. vivax IspD. More on the design: method as in PMID 24446431, PMID 21766403, PMID 22975264. The conditions noted are these: known IspD inhibitors, Fig. 2; cited from earlier work.
Data set [4] can be described thus: Calculated ClogD and aqueous solubility (AstraZeneca algorithms). The conditions noted are these: predicted values.

Molecules are shown by their SMILES. “Also recorded” adds a separate entry of the source.

The text below walks through data of publication PMC5114681, “Molecular Mechanism of Action of Antimalarial Benzoisothiazolones: Species-Selective Inhibitors of the Plasmodium spp. MEP Pathway enzyme, IspD” (Scientific Reports, 2016).

The IC50 is the point on the concentration scale where inhibition reaches its midpoint. Usually EC50 stands for the midpoint of the concentration-response curve.

Sequence of PfIspD (Q8I273 entry or part of it): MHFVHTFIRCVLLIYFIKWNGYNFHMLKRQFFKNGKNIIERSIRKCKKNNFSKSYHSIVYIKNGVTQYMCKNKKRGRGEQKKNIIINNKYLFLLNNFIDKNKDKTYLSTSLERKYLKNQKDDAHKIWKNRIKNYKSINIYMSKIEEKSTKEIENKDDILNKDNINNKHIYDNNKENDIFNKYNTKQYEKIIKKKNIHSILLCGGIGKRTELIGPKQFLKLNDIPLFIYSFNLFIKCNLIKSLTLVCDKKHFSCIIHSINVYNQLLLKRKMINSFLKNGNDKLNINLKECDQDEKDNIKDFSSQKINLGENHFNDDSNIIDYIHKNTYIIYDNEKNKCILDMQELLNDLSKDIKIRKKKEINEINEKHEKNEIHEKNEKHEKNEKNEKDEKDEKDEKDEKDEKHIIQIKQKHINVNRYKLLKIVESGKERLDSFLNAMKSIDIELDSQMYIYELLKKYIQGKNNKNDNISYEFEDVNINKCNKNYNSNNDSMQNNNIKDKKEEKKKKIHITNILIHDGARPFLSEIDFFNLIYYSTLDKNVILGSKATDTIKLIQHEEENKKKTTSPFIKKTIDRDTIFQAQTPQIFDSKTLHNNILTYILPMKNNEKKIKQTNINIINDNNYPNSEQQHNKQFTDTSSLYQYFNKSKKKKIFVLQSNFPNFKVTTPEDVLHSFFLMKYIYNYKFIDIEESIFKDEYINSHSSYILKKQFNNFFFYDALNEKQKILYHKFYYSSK
T1 sequence (Q46893 whole entry A14C): as the sequence (Q46893 whole entry) above, with A14C counted along it

`Oc1c(Cc2ccccc2)c(Cl)cc2ncnn12` [3a]: the half-inhibitory concentration (IC50) with A. thaliana IspD was 140 nM.
As for `O=c1c2ccccc2sn1-c1cccc(-c2ccc(CN3CCOCC3)cc2)c1` [compound 13, 2-(4’-(morpholinomethyl)-[1,1’-biphenyl]-3-yl)benzo[d]isothiazol-3(2H)-one], the IC50 against PfIspD came to 400 ± 82 nM; on PvIspD it was 50 ± 16 nM. The half-maximal effective concentration (EC50) in the data set with P. falciparum strain 3D7 [1] was 410 ± 82 nM.
`O=CN(O)CCCP(=O)(O)O` [FSM, fosmidomycin, reference compound]: the “IPP rescue of parasite growth” value in the data set with P. falciparum strain 3D7 [2] was “rescue”. For the same molecule, in the data set with MEP pathway, the “MEcPP levels compared to untreated parasites” value is recorded as “Significant decreases”.
Take `O=C(O)[C@@H]1Cc2c([nH]c3ccccc23)[C@@H](c2ccc(Cl)cc2Cl)N1` [compound 4, 1R,3S-MMV008138]: the 50% inhibitory concentration (IC50) in the data set with P. falciparum IspD is 47 nM.
`COc1ccc2nc(NC(=O)c3cc(-c4ccccc4O)n[nH]3)sc2c1` [compound 2]: the IC50 in the data set on A. thaliana IspD was 1800 nM.
With `Cc1ccc(-n2sc3ccccc3c2=O)cc1S(=O)(=O)N1CCOCC1` [compound 7], the IC50 at PfIspD was 450 ± 79 nM; on PvIspD, 45 ± 20 nM. Moreover, in the data set on P. falciparum strain 3D7 [1], the half-maximal effective concentration (EC50) was found to be 4300 ± 180 nM.
Take `O=c1c2ccccc2sn1-c1cccc(-c2ccc(Cl)cc2)c1` [compound 9, 2-(4’-chloro-[1,1’-biphenyl]-3-yl)benzo[d]isothiazol-3(2H)-one]: the concentration for half-maximal inhibition (IC50) against PfIspD was 73 ± 20 nM; on PvIspD it was 57 ± 13 nM. For the same molecule, in the data set on P. falciparum strain 3D7 [1], the EC50 is 1100 ± 160 nM.
With `O=c1c2ccccc2sn1-c1cccc(-c2ccc(CN3CCC(F)CC3)cc2)c1` [compound 12, 2-(4’-((4-fluoropiperidin-1-yl)methyl)-[1,1’-biphenyl]-3-yl)benzo[d]isothiazol-3(2H)-one], the 50% inhibitory concentration (IC50) at PfIspD amounted to 860 ± 110 nM; at PvIspD it was 240 ± 100 nM. Besides, in the data set on P. falciparum strain 3D7 [1], the half-maximal effective concentration (EC50) worked out at 320 ± 92 nM.
Regarding `COc1ccc(-c2cccc(-n3sc4ccccc4c3=O)c2)cc1` [compound 8, 2-(4’-methoxy-[1,1’-biphenyl]-3-yl)benzo[d]isothiazol-3(2H)-one], the EC50 is 800 ± 120 nM in the data set on P. falciparum strain D6; 1380 ± 190 nM in data set [3]; 1020 ± 250 nM in the data set with P. falciparum strain 7G8; 980 ± 240 nM with P. falciparum strain 3D7 [2] (Plasmodium falciparum, 3D7, mean and SEM, n ≥ 3). The IC50 on EcIspD-A14C came to 440 ± 48 nM. In addition, in the data set with PfIspD-C202A, the “decrease in sensitivity, PfIspD-C202A versus PfIspD-wt” value is recorded as 6 fold. For the same molecule, the “IPP rescue of parasite growth” value in the data set on P. falciparum strain 3D7 [2] is given as “did not observe rescue; also recorded: No rescue was observed”. In addition, at EcIspD-wt, the “inhibition of recombinant EcIspD (wild type)” value is “highly resistant to inhibition”. In addition, in the data set with MEP pathway, the “DOXP levels compared to untreated parasites” value is listed as “not affected”. Further, in the data set on MEP pathway, the “MEcPP levels compared to untreated parasites” value is “Significant decreases”.
In the case of `N#Cc1cnn2c(O)c(Cc3ccccc3)c(Cl)cc12` [3b], the IC50 in the data set with A. thaliana IspD was 35 nM.
Regarding `O=c1c2ccccc2sn1-c1cccc(-c2ccc(C(F)(F)F)cc2)c1` [compound 10, 2-(4’-(trifluoromethyl)-[1,1’-biphenyl]-3-yl)benzo[d]isothiazol-3(2H)-one], the IC50 against PfIspD came to 270 ± 15 nM; on PvIspD, 41 ± 18 nM. Also, the concentration for a half-maximal effect (EC50) in the data set on P. falciparum strain 3D7 [1] turned out to be 650 ± 21 nM.
For `Oc1c(Br)cc(Br)cc1-c1[nH]c(Br)c(Br)c1Br` [compound 1], the results for the IC50 in the data set with A. thaliana IspD and with P. vivax IspD were 13000 nM and 48 µM, respectively.
Take `CN1CCN(Cc2ccc(-c3cccc(-n4sc5ccccc5c4=O)c3)cc2)CC1` [compound 11, 2-(4’-((4-methylpiperazin-1-yl)methyl)-[1,1’-biphenyl]-3-yl)benzo[d]isothiazol-3(2H)-one]: the figures for the IC50 against PfIspD and at PvIspD were 440 ± 75 nM and 62 ± 26 nM, respectively. Also, the “increase in predicted aqueous solubility compared to 9” value in [4] is given as 100 fold. Also, in the data set with P. falciparum strain 3D7 [1], the EC50 stood at 420 ± 6 nM.
